Measurements reported in patent US6521567B2, “Herbicidal composition” (priority 2001, dated 2003).

Tested on: common cocklebur
Assay: Test Example 4: field spray, herbicidal activity (flumiclorac-pentyl)
Assay type: in vivo, Xanthium strumarium
Settings: index 0-100; common cocklebur height about 65 cm; 100 g/hectare alone; 1000 liters per hectare spray; after 4 days
Protocol: The herbicidal effect is evaluated with indices of 0 to 100 at intervals of 5, wherein “0” means that there was no or little difference in the degree of germination or growth between the treated plants and the untreated plants at the time of examination, “100” means that the test plants died completely.
Ten (10) parts of flumiclorac-pentyl were dissolved in 80 parts of xylene, after adding 10 parts of Sorpol 3005X (produced by Toho Chemical), the solution was well stirred and mixed to give 10% emulsifiable concentrate of flumiclorac-pentyl. From the aqueous dilution of said 10% emulsifiable concentrate of flumiclorac-pentyl, with a aqueous dilution of 25% emulsifiable concentrate of thiometon (commercial name: Ekatin EC, produced by Sankyo), 45% emulsifiable concentrate of oxydeprofos (commercial name: Estox EC, produced by Nihon Bayer Agrochem) or 50% emulsifiable concentrate of fenthion (commercial name: baycid EC, produced by Nihon Bayer Agrochem), prepared each aqueous dilution of the prescribed concentration of the present formulation.
Their aqueous dilution of the present formulation, with 1000 liters per hectare, were sprayed over a place in the field where common cocklebur (the height: about 65 cm) were growing. After 4 days from the application, the herbicidal activity were examined.

CCCCCOC(=O)COc1cc(N2C(=O)C3=C(CCCC3)C2=O)c(F)cc1Cl [flumiclorac-pentyl, pentyl[2-chloro-5-(cyclohex-1-ene-1,2-dicarboximido)-4-fluorophenoxy]acetate]
Herbicidal activity: 30
